Test results as given in ChEMBL document CHEMBL1201862, “PubChem BioAssay data set” (2004).
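Growth conditions: 96-well plates. Treatment: test compound, 48 hours, 5 concentrations. Analysis: linear interpolation between bracketing concentrations; unreached endpoints set to highest concentration. GI50 = concentration required for 50% inhibition of growth.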 Calls of active or inactive are those of the source. No stated cut-off is given here; in the data, active = GI50 up to about 1.1 µM and inactive = higher. Non-standard residues stand in square brackets, D forms with d. Residues, ends and D or L forms follow the SMILES beside them. ξ: configuration not given here. *: point of attachment. ξF = NC(Cc1ccccc1)C(=O)O; Cbz = O=C(OCc1ccccc1)*; Aib = CC(C)(N)C(=O)O

Tests used:
Assay in all cases: growth of human tumour cells (NCI), 48 h
[1] = system: XF498
[2] = system: LXFL 529
[3] = system: SNB-78
[4] = system: HOP-18
[5] = system: DU-145
[6] = system: PC-3
[7] = system: BT-549

| SMILES | GI50 [1] | GI50 [2] | GI50 [3] | GI50 [4] | GI50 [5] | GI50 [6] | GI50 [7] |
| --- | --- | --- | --- | --- | --- | --- | --- |
| O=c1sc2ccccc2n1CC1CS1 (stereo not given) | > 100 µM (inactive) | – | – | – | – | – | – |
| C/C(CCOC1CCCCO1)=C(\C)[Si](C)(C)C (stereo not given) | > 100 µM (inactive) | > 100 µM (inactive) | > 100 µM (inactive) | – | – | – | – |
| Nc1ccn(C2OC(COP(=O)(O)Oc3ccccc3)C(O)C2O)c(=O)n1 (stereo not given) | < 0.01 µM (active) | – | > 100 µM (inactive) | > 74.5 µM (inactive) | – | – | – |
| CCOC(=O)CNC(=O)C(Cc1ccccc1)NC(=O)C(C)(C)NC(=O)OCc1ccccc1 (stereo not given) (Cbz-[Aib]-[ξF]-Gly-OEt) | – | – | – | – | 28.6 µM (inactive) | > 100 µM (inactive) | – |
| COc1ccc(N2C(=O)C(=O)N(C)C2=O)c2ccccc12 | – | – | – | – | > 10 µM (inactive) | > 10 µM (inactive) | – |
| C[n+]1cccc2c(=O)c3ccccc3oc21 | – | – | – | – | > 100 µM (inactive) | > 100 µM (inactive) | – |
| CN1C(=O)c2ccccc2NC(=O)c2cnn(C)c21 | > 100 µM (inactive) | – | > 100 µM (inactive) | > 100 µM (inactive) | – | – | – |
| COc1ccc(N2NC(c3ccccc3)(c3ccccc3)C(C)C2=O)cc1 (stereo not given) | – | – | – | – | > 100 µM (inactive) | 30.3 µM (inactive) | > 100 µM (inactive) |
| COc1ccc(-n2cnnc2-c2nsc3ccccc23)cc1 | – | > 100 µM (inactive) | > 100 µM (inactive) | 36.6 µM (inactive) | – | – | – |
| COC1=CC(=O)c2c(c(O)c3oc4cc(OC)cc(C)c4c(=O)c3c2O)C1=O [BIKAVERIN] | 0.942 µM (active) | – | 3.41 µM (inactive) | 0.906 µM (active) | – | – | – |
